Broadly, the inhibition is the relative decrease from the control value, in per cent. In general, AUC(0-t) refers to exposure summed from dosing to a finite time, without extrapolation to infinity. A lower AUC(0-t) goes with low exposure. The Tmax is the time from dosing to the highest level. As usually defined, the Cmax is the maximum level reached in the sampled fluid or tissue. For orientation: half-life means the time in which the quantity being followed falls by half. A low value points to rapid decline. As a reminder, the AUC(0-inf) is the area under the concentration-time curve extrapolated to infinity. A high value points to high exposure.

The values below come from ChEMBL document CHEMBL6121038, “Design and Synthesis of Hederagenin Derivatives for the Treatment of Sepsis by Targeting TAK1 and Regulating the TAK1-NF-κB/MAPK Signaling” (J Med Chem, 2025).

The test system of series [1] is RAW264.7. The series can be described thus: Cytotoxicity against mouse RAW264.7 cells assessed as cell viability at 40 uM measured after 24 hrs by MTT assay. Type of series: toxicity, cell-based. The note with it: raw264.7, 24 h. (Tetrazolium dyes change colour on reduction, which living cells bring about.)
The subject of series [2] is RAW264.7. Kind of series: Antiinflammatory activity in LPS-induced mouse RAW264.7 cells assessed as inhibition of IL-6 level at 20 uM incubated for 24 hrs by ELISA method relative to control. Type of series: functional.
For series [3], the system named is RAW264.7. The series can be described thus: Antiinflammatory activity in LPS-induced mouse RAW264.7 cells assessed as inhibition of TNF-alpha level at 20 uM incubated for 24 hrs by ELISA method relative to control. In kind it is functional. (In general: In an ELISA, binding on a coated surface is turned into a signal by an enzyme label.)
A short description of series [4]: AUC (0 to t) in BALB/c mouse at 10 mg/kg, po measured upto 24 hrs by LC/MS-MS analysis. To be noted: in vivo. In kind it is ADME, organism-based.
Series [5] can be described thus: Tmax in BALB/c mouse at 10 mg/kg, po measured upto 24 hrs by LC/MS-MS analysis. The note with it: in vivo. In kind it is ADME, organism-based.
The nature of series [6]: Cmax in BALB/c mouse at 10 mg/kg, po measured upto 24 hrs by LC/MS-MS analysis. The note with it: in vivo. In kind it is ADME, organism-based.
Series [7] in a line: Half life in BALB/c mouse at 10 mg/kg, po measured upto 24 hrs by LC/MS-MS analysis. Type of series: ADME, organism-based. To be noted: in vivo.
A short description of series [8]: AUC (0 to infinity) in BALB/c mouse at 10 mg/kg, po measured upto 24 hrs by LC/MS-MS analysis. In kind it is ADME, organism-based. To be noted: in vivo.
Series [9] is described as follows: Toxicity in BALB/c mouse assessed as histopathological lesions in lung at 10 mg/kg, po by H and E staining based analysis. The note with it: in vivo. Type of series: organism-based.

Regarding `CCOC(=O)c1noc2c1C[C@@]1(C)[C@@H](CC[C@]3(C)[C@@H]1CC=C1[C@@H]4CC(C)(C)CC[C@]4(C(=O)OCc4ccccc4)CC[C@]13C)[C@]2(C)COC(=O)[C@H](CC(C)C)NC(=O)OC(C)(C)C`, the Activity result in the series on RAW264.7 [1] is “Non-toxic”. In addition, the figures for the inhibition at 20 µM in the series with RAW264.7 [2] and with RAW264.7 [3] were 4.25% and 7.45%, respectively.
Taken in the same sequence, the figures for `CCOC(=O)c1noc2c1C[C@@]1(C)[C@@H](CC[C@]3(C)[C@@H]1CC=C1[C@@H]4CC(C)(C)CC[C@]4(C(=O)OCc4ccccc4)CC[C@]13C)[C@]2(C)COC(=O)CCC(=O)N1CCCCC1` were “Non-toxic”, 50.6% and 61%.
Consider `CCOC(=O)c1noc2c1C[C@@]1(C)[C@@H](CC[C@]3(C)[C@@H]1CC=C1[C@@H]4CC(C)(C)CC[C@]4(C(=O)OCc4ccccc4)CC[C@]13C)[C@]2(C)COC(=O)CCSSCCC(=O)N1CCN(CC)CC1`, for which the inhibition at 20 µM in the series with RAW264.7 [2] amounted to 26.8%; with RAW264.7 [3] it was 22.7%.
For the molecule `CCOC(=O)c1noc2c1C[C@@]1(C)[C@@H](CC[C@]3(C)[C@@H]1CC=C1[C@@H]4CC(C)(C)CC[C@]4(C(=O)OCc4ccccc4)CC[C@]13C)[C@]2(C)COC(=O)c1ccccc1C(=O)N1CCN(C(C)C)CC1`, the Activity result in the series with RAW264.7 [1] is “Non-toxic”. Besides, the inhibition at 20 µM in the series on RAW264.7 [2] worked out at 11.4%; in the series on RAW264.7 [3] it was 22.9%.
Taken in the same sequence, the figures for `CCOC(=O)c1noc2c1C[C@@]1(C)[C@@H](CC[C@]3(C)[C@@H]1CC=C1[C@@H]4CC(C)(C)CC[C@]4(C(=O)OCc4ccccc4)CC[C@]13C)[C@]2(C)COC(=O)CCC(=O)N[C@@H](Cc1ccccc1)C(=O)OC` were “Non-toxic”, 25% and 31.7%.
Taken in the same sequence, the figures for `CCOC(=O)c1noc2c1C[C@@]1(C)[C@@H](CC[C@]3(C)[C@@H]1CC=C1[C@@H]4CC(C)(C)CC[C@]4(C(=O)OCc4ccccc4)CC[C@]13C)[C@]2(C)COC(=O)c1cnccn1` were “Non-toxic”, 5.92% and 8.27%.
Taken in the same sequence, the figures for `CCOC(=O)c1noc2c1C[C@@]1(C)[C@@H](CC[C@]3(C)[C@@H]1CC=C1[C@@H]4CC(C)(C)CC[C@]4(C(=O)OCc4ccccc4)CC[C@]13C)[C@]2(C)COC(=O)[C@H](CCC(=O)OC)NC(=O)OC(C)(C)C` were “Non-toxic”, 55.4% and 60%.
With `CCOC(=O)c1noc2c1C[C@@]1(C)[C@@H](CC[C@]3(C)[C@@H]1CC=C1[C@@H]4CC(C)(C)CC[C@]4(C(=O)OCc4ccccc4)CC[C@]13C)[C@]2(C)COC(=O)CCC(=O)N[C@@H](CC(=O)OC)C(=O)OC`, in the series with RAW264.7 [1], the Activity entry is listed as “Non-toxic”. The inhibition at 20 µM was determined as 37.6% in the series with RAW264.7 [2] and 54.3% with RAW264.7 [3].
Turning to `CC1(C)CC[C@]2(C(=O)OCc3ccccc3)CC[C@]3(C)C(=CC[C@@H]4[C@@]5(C)Cc6c(C(=O)O)noc6[C@@](C)(COC(=O)CCC(=O)N6CCOCC6)[C@@H]5CC[C@]43C)[C@@H]2C1`, the AUC(0-t) at 24 h in series [4] was determined as 1290 ng·h/mL. The Tmax in series [5] was 1.5 h. Also, the Cmax in series [6] came to 209 ng/mL. The half-life in series [7] was 269 min. The AUC(0-inf) in [8] worked out at 2020 ng·h/mL.
On to `C[C@@H]1C[C@H]2[C@@H]3CCC4=CC(=O)C=C[C@]4(C)[C@@]3(F)[C@@H](O)C[C@]2(C)[C@@]1(O)C(=O)CO` [DEXAMETHASONE], for which the inhibition at 20 µM with RAW264.7 [2] turned out to be 73.5%; in the series with RAW264.7 [3] it was 80.7%. For the same molecule, in [9], the Activity result is “Non-toxic”.
`CCOC(=O)c1noc2c1C[C@@]1(C)[C@@H](CC[C@]3(C)[C@@H]1CC=C1[C@@H]4CC(C)(C)CC[C@]4(C(=O)OCc4ccccc4)CC[C@]13C)[C@]2(C)COC(=O)CCSSCCC(=O)N[C@@H](CC(=O)OC)C(=O)OC`: in the series on RAW264.7 [1], the Activity entry is reported as “Non-toxic”. The inhibition at 20 µM amounted to 6.08% with RAW264.7 [2] and 7.53% in the series with RAW264.7 [3].
Turning to `CCOC(=O)c1noc2c1C[C@@]1(C)[C@@H](CC[C@]3(C)[C@@H]1CC=C1[C@@H]4CC(C)(C)CC[C@]4(C(=O)OCc4ccccc4)CC[C@]13C)[C@]2(C)COC(=O)CCC(=O)N[C@@H](CC(C)C)C(=O)OC`, in the series with RAW264.7 [1], the Activity entry is on record as “Non-toxic”. Besides, the inhibition at 20 µM in the series with RAW264.7 [2] worked out at 25.7%; with RAW264.7 [3], 33.1%.
Taken in the same sequence, the figures for `CCOC(=O)c1noc2c1C[C@@]1(C)[C@@H](CC[C@]3(C)[C@@H]1CC=C1[C@@H]4CC(C)(C)CC[C@]4(C(=O)OCc4ccccc4)CC[C@]13C)[C@]2(C)COC(=O)CCc1c[nH]c2ccccc12` were “Non-toxic”, 18.9% and 15.8%.
Taken in the same sequence, the figures for `CCOC(=O)c1noc2c1C[C@@]1(C)[C@@H](CC[C@]3(C)[C@@H]1CC=C1[C@@H]4CC(C)(C)CC[C@]4(C(=O)OCc4ccccc4)CC[C@]13C)[C@]2(C)COC(=O)c1ccccc1C(=O)N[C@@H](CCC(=O)OC)C(=O)OC` were “Non-toxic”, 8.65% and 14.8%.
Taken in the same sequence, the figures for `CCOC(=O)c1noc2c1C[C@@]1(C)[C@@H](CC[C@]3(C)[C@@H]1CC=C1[C@@H]4CC(C)(C)CC[C@]4(C(=O)OCc4ccccc4)CC[C@]13C)[C@]2(C)COC(=O)CCC(=O)N1CCN(CC)CC1` were “Non-toxic”, 66.3% and 75.4%.
Take `CCOC(=O)c1noc2c1C[C@@]1(C)[C@@H](CC[C@]3(C)[C@@H]1CC=C1[C@@H]4CC(C)(C)CC[C@]4(C(=O)OCc4ccccc4)CC[C@]13C)[C@]2(C)COC(=O)CCn1cccc1`: in the series on RAW264.7 [1], the Activity entry was “Non-toxic”. The results for the inhibition at 20 µM in the series on RAW264.7 [2] and in the series on RAW264.7 [3] were 46.2% and 52.5%, respectively.
Taken in the same sequence, the figures for `CCOC(=O)c1noc2c1C[C@@]1(C)[C@@H](CC[C@]3(C)[C@@H]1CC=C1[C@@H]4CC(C)(C)CC[C@]4(C(=O)OCc4ccccc4)CC[C@]13C)[C@]2(C)COC(=O)CCC(=O)N1CCN(C(C)C)CC1` were “Non-toxic”, 68.6% and 78.1%.
Taken in the same sequence, the figures for `CCOC(=O)c1noc2c1C[C@@]1(C)[C@@H](CC[C@]3(C)[C@@H]1CC=C1[C@@H]4CC(C)(C)CC[C@]4(C(=O)OCc4ccccc4)CC[C@]13C)[C@]2(C)COC(=O)[C@H](CCSC)NC(=O)OC(C)(C)C` were “Non-toxic”, 11.7% and 15.3%.
Taken in the same sequence, the figures for `CCOC(=O)c1noc2c1C[C@@]1(C)[C@@H](CC[C@]3(C)[C@@H]1CC=C1[C@@H]4CC(C)(C)CC[C@]4(C(=O)OCc4ccccc4)CC[C@]13C)[C@]2(C)COC(=O)[C@H](Cc1ccccc1)NC(=O)OC(C)(C)C` were “Non-toxic”, 44.9% and 59.3%.
With `CCOC(=O)c1noc2c1C[C@@]1(C)[C@@H](CC[C@]3(C)[C@@H]1CC=C1[C@@H]4CC(C)(C)CC[C@]4(C(=O)OCc4ccccc4)CC[C@]13C)[C@]2(C)COC(=O)CCC(=O)N[C@@H](CCC(=O)OC)C(=O)OC`, the Activity entry in the series on RAW264.7 [1] is given as “Non-toxic”. Moreover, the inhibition at 20 µM was determined as 22% with RAW264.7 [2] and 33.6% in the series with RAW264.7 [3].
On to `CC1(C)CC[C@]2(C(=O)OCc3ccccc3)CC[C@]3(C)C(=CC[C@@H]4[C@@]5(C)Cc6c(C(=O)O)noc6[C@@](C)(CO)[C@@H]5CC[C@]43C)[C@@H]2C1`, for which the exposure AUC(0-t) at 24 h in [4] turned out to be 2580 ng·h/mL. For the same molecule, the Tmax in series [5] is 3 h. For the same molecule, the Cmax in [6] was 285 ng/mL. The molecule further gave a half-life in series [7] of 332 min. Further, the AUC(0-inf) in [8] came out at 2720 ng·h/mL.
Consider `CCOC(=O)c1noc2c1C[C@@]1(C)[C@@H](CC[C@]3(C)[C@@H]1CC=C1[C@@H]4CC(C)(C)CC[C@]4(C(=O)OCc4ccccc4)CC[C@]13C)[C@]2(C)COC(=O)CCC(=O)N[C@H](CCSC)C(=O)OC`, for which the Activity result in the series on RAW264.7 [1] is given as “Non-toxic”. The inhibition at 20 µM with RAW264.7 [2] stood at 44.6%; in the series on RAW264.7 [3], 52.2%.
Taken in the same sequence, the figures for `CCOC(=O)c1noc2c1C[C@@]1(C)[C@@H](CC[C@]3(C)[C@@H]1CC=C1[C@@H]4CC(C)(C)CC[C@]4(C(=O)OCc4ccccc4)CC[C@]13C)[C@]2(C)COC(=O)CCSSCCC(=O)N1CCCCC1` were “Non-toxic”, 24.5% and 14.2%.
Taken in the same sequence, the figures for `CCOC(=O)c1noc2c1C[C@@]1(C)[C@@H](CC[C@]3(C)[C@@H]1CC=C1[C@@H]4CC(C)(C)CC[C@]4(C(=O)OCc4ccccc4)CC[C@]13C)[C@]2(C)COC(=O)c1cc2ccccc2[nH]1` were “Non-toxic”, 15% and 9.1%.
